The values below come from patent US6329389A, “Amine compounds, their production and use” (Takeda Chemical Industries, Ltd., priority 1998, dated 2001).

Counter-ions that a name gives are not always drawn.

For orientation: IC50 means the concentration that inhibits the measured activity by half. A low value points to higher potency. In general, inhibition refers to the change of the read-out against control, counted positive when it falls.

In assay [1] the test system is rat astrocyte. The assay is described as follows: Inhibitory effect on forskolin-stimulated accumulation of cAMP in rat astrocyte. It counts as cell-based. As for the experimental part:
Inhibitory effect on forskolin-stimulated accumulation of cAMP in rat astrocyte
For measurement of the accumulated intracellular adenosine 3',5'-monophosphate (cAMP), newborn rat astrocytes prepared in accordance with the method of Mc carthy, K. D. et al. [Cell Biology, 85, 890-920, 1980] were proliferated in 24-well plate until they were confluent. Said cells were washed twice with 1 ml of Medium A [Dulbecco's Modified Eagle Medium (DMEM), 20 mM 2-[4-(2-hydroxyethyl)-1-piperazinyl]ethanesulfonic acid (HEPES) (pH 7.5), 0.2% bovine serum albumin and 0.2 mM 3-isobutyl-1-methylxanthine (IBMX)]. The medium A was placed in wells each in a quantity of 400 μl and incubated at 37° C. for an hour. […] The cells were washed twice with 1 ml of Medium A. 500 μl of Medium A and 100 μl of a 20% aqueous perchloric acid solution were placed in each well and left standing for20 minutes at 4° C. to lyse the cells. The lyzate was placed in an Eppendorf's tube and centrifuged (15.000 rpm, 10 minutes). The supernatant was placed in another Eppendorf's tube in quantity of 500 μl and neutralized with 60 mM of a HEPES aqueous solution containing 1.5 M of potassium chloride. The content of cAMP in this extract was determined by the Amersham kit (cAMP EIA system).

In assay [2] the target is T1, human somatostatin receptor protein subtype 2 (SSTR2) (Homo sapiens, UniProt P30874).
T1 construct: expressed in transfected cells; host or cells: CHO (dhfr-) cells, strain SSTR2-HS5-9
The assay is described as follows: Binding inhibition of 125I-somatostatin-14, IC50, SSTR2 membrane fraction. Particulars: 125I-somatostatin-14, CHO cell membrane fraction, 25° C., 60 minutes.

Assay [3] has as its target T2, human somatostatin receptor protein subtype 3 (SSTR3) (Homo sapiens, UniProt P32745).
T2 construct: expressed in transfected cells; host or cells: CHO (dhfr-) cells, strain SSTR3-15-19
The assay is described as follows: Binding inhibition of 125I-somatostatin-14, IC50, SSTR3 membrane fraction. Particulars: 125I-somatostatin-14, CHO cell membrane fraction, 25° C., 60 minutes.

Assay [4] concerns the target human somatostatin receptor protein subtype 4 (hSSTR4). The experiment in a line: Binding inhibition of 125I-somatostatin-14, IC50, SSTR4 membrane fraction. To be noted: 125I-somatostatin-14, human SSTR4 CHO cell membrane fraction, 25° C., 60 minutes.
The target of assay [5] is T3, rat somatostatin receptor protein subtype 4 (rSSTR4) (Rattus norvegicus, UniProt P30937).
T3 construct: expressed in transfected cells; host or cells: CHO (dhfr-) cells, strain rSSTR4-20-25
The assay is described as follows: Binding inhibition of 125I-somatostatin-14, IC50, rat SSTR4 membrane fraction. To be noted: 125I-somatostatin-14, rat SSTR4 CHO cell membrane fraction, 25° C., 60 minutes.

T1 sequence (P30874 whole entry): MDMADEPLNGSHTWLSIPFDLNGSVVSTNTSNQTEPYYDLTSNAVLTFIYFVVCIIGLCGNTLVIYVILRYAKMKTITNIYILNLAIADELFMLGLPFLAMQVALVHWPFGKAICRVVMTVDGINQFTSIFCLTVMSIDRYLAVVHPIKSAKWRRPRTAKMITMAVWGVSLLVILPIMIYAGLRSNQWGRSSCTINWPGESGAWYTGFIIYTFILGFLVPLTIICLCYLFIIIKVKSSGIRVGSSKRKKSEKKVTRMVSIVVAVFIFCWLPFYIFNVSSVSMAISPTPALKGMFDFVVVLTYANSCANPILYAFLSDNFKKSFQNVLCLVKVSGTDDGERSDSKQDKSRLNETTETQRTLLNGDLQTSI
T2 sequence (P32745 whole entry): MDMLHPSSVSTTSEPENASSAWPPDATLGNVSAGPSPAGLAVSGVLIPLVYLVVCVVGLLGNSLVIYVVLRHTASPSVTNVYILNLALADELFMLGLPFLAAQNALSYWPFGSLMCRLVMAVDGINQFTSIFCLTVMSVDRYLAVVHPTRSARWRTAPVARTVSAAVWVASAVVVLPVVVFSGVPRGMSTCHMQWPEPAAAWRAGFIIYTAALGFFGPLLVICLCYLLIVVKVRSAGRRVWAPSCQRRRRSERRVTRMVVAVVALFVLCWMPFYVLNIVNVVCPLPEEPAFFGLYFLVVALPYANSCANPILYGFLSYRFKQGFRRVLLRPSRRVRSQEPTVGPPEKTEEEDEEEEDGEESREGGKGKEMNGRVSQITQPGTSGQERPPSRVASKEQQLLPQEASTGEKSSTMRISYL
T3 sequence (P30937 whole entry): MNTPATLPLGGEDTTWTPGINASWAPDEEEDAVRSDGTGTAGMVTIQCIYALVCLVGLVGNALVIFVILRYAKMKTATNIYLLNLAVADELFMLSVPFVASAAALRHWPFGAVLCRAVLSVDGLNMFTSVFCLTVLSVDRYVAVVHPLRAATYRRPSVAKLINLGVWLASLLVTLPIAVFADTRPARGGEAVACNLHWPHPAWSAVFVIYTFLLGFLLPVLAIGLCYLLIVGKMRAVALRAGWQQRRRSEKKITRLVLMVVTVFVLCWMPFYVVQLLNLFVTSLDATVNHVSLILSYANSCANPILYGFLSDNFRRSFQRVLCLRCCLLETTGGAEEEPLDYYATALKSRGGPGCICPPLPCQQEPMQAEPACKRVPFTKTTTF

Regarding “Somatostatin-14: Somatostatin-14, the reference peptide in the rat astrocyte cAMP test [reference compound]”, the “inhibition of the intracellular accumulation of cAMP at the time of stimulation by forskolin” value in assay [1] (compound 10 nM, forskolin 10 μM, rat astrocytes, 37° C., an hour) was 83%.
As for `CN(C)CC1Cc2ccccc2N(C(=O)[C@@H](Cc2c[nH]c3ccccc23)NC(=O)N2CCN(c3ccccc3)CC2)C1` (stereo partly drawn) [Example 88, 3-(R,S)-(N,N-Dimethylamino)methyl-1-[3-(indol-3-yl)-2-[(R)-(4-phenylpiperazin-1-yl)]carbonylaminolpropanoyl]-1,2,3,4-tetrahydroquinoline], the 50% inhibitory concentration (IC50) in assay [2] is 9 nM; in assay [3], 0.8 nM.
Consider `CN(C)CC1Cc2ccccc2N(C(=O)[C@@H](Cc2c[nH]c3ccccc23)NC(=O)N2CCC(n3c(=O)[nH]c4ccccc43)CC2)C1` (stereo partly drawn) [Example 89, 3-(R,S)-(N,N-Dimethylamino)methyl-1-[3-(indol-3-yl)-2-[(R)-4-(2-oxo-2,3-dihydro-1H-benzimidazol-1-yl]piperidinocarbonylamino]propanoyl]-1,2,3,4-tetrahydroquinoline], for which the figures for the IC50 in assay [2] and in assay [3] were 3 nM and 2 nM, respectively.
Take `O=C(CCc1nc(-c2cc3ccccc3o2)no1)N1CC(CN2CCCC2)Cc2ccccc21` (stereo not drawn) [Example 56, 1-[3-(3-(2-Benzofuranyl)-1,2,4-oxadiazol-5-yl]propanoyl]-3-(pirrolidin-1-yl)methyl-1,2,3,4-tetrahydroquinoline oxalate]: the results for the half-inhibitory concentration (IC50) in assay [4] and in assay [5] were 7 nM and 10 nM, respectively. For the same molecule, the inhibition at 0.01 µM in assay [1] (Astrocyte, compound 10 nM, forskolin 10 μM, rat astrocytes, 37° C., an hour, read-out: inhibition of the intracellular accumulation of cAMP at the time of stimulation by forskolin) is 43%. Besides, the “agonistic effect on the rat somatostatin receptor” value in assay [1] (conclusion from cAMP test in rat astrocytes) is listed as “has an agonistic effect”.
